US20260053764A1, “COMPOSITION FOR PREVENTING DETERIORATION IN COGNITIVE FUNCTION AND/OR IMPROVING COGNITIVE FUNCTION” (PHARMA FOODS INTERNATIONAL CO., LTD., priority 2020, published 2026)

Test system: cognitive function of a human
Assay: RBANS neuropsychological test in clinical tests A and B
Type: in vivo
Design: Attention / Delayed memory / Immediate memory / Language: scale not given here
Details: for Attention / Immediate memory / Language / Visual spatial configuration / Delayed memory: mean ± SD; for scores regarding delayed playback, GABA group compared to the placebo group / scores regarding visual space, GABA group compared to the placebo group: after twelve weeks of ingestion
Experimental: In addition, the RBANS neuropsychological test (RBANS: Repeatable Battery for the Assessment of Neuropsychological Status) is one of the neuropsychological examinations that have been standardized the a in United States, which is neuropsychological test exercise (examination battery) that takes a short time (about 30 minutes) and can be repeatedly assessed. The RBANS neuropsychological test can assess five cognitive domains, which are immediate memory, visual spatial/constructional, language, attention and delayed memory.
Two types of placebo-controlled randomized double-blind two-group parallel comparison tests were carried out as clinical tests. […] Specifically, capsules comprising 100 mg of dextrin per capsule were used as the placebo food.
The screening examination was carried out to select 60 subjects for each test (a total of 120 subjects). MMSE (Mini Mental State Examination) is an examination for assessing the degree of progression of dementia or the like based on the score thereof with 30 as the perfect score, wherein dementia is suspected with a score of 23 or lower.
The total of 120 subjects were randomly divided into test A active group, test A placebo group, test B active group and test B placebo group with 30 subjects in each group. Each subject of the test A active group ingested two capsules of the active food, each subject of the test A placebo group ingested two capsules of the placebo food, each subject of the test B active group ingested one capsule of the active food and each subject of the test B placebo group ingested one capsule of the placebo food.
Each subject followed the schedule shown in the table below and ingested one or two of the assigned capsules together with water for 12 weeks from two weeks after the initial screening examination. All subjects had no particular instruction during the ingestion period and freely took their meals.
As shown with ● in the test schedule in Table 1, Cognitrax was carried out a total of five times, which are upon screening, before starting test food sample ingestion, after four weeks of ingestion, after eight weeks of ingestion and after twelve weeks of ingestion, and the RBANS neuropsychological test was carried out a total of two times, which are before staring test food ingestion and after twelve weeks of ingestion.

[1] = test A 200 mg, before ingestion
[2] = test B 100 mg, before ingestion

Compound: NCCCC(=O)O [GABA, γ-aminobutyric acid]
- Delayed memory: difference between active food and placebo food groups (test A 200 mg, 12 w): 9.4
- Immediate memory: difference between active food and placebo food groups (test A 200 mg, 12 w): 13.1
- Language: difference between active food and placebo food groups (test A 200 mg, 12 w): 5.0
- RBANS domain (row head blank): difference between active food and placebo food groups (test A 200 mg, 12 w): 5.6
- Visual space: difference between active food and placebo food groups (test A 200 mg, 12 w): 3.1
- Attention (test A 200 mg, 12 w): 53.0 ± 15.2
- Immediate memory (test A 200 mg, 12 w): 47.6 ± 14.7
- Language (test A 200 mg, 12 w): 54.2 ± 9.5
- Visual spatial configuration (test A 200 mg, 12 w): 48.8 ± 13.0
- Delayed memory: difference between active food and placebo food groups [1]: −1.6
- Immediate memory: difference between active food and placebo food groups [1]: 0.8
- Language: difference between active food and placebo food groups [1]: 2.3
- RBANS domain (row head blank): difference between active food and placebo food groups [1]: −0.8
- Visual space: difference between active food and placebo food groups [1]: −0.2
- Attention [1]: 44.5 ± 17.6
- Delayed memory [1]: 39.8 ± 17.1
- Immediate memory [1]: 42.3 ± 16.6
- Language [1]: 48.4 ± 8.5
- Visual spatial configuration [1]: 47.7 ± 14.7
- scores regarding delayed playback, GABA group compared to the placebo group (test A): significant improvement
- scores regarding visual space, GABA group compared to the placebo group (test A): significant improvement
- Attention: difference between active food and placebo food groups (test B 100 mg, 12 w): −2.2
- Delayed memory: difference between active food and placebo food groups (test B 100 mg, 12 w): 11.9
- Immediate memory: difference between active food and placebo food groups (test B 100 mg, 12 w): 3.5
- Language: difference between active food and placebo food groups (test B 100 mg, 12 w): 3.9
- Visual space: difference between active food and placebo food groups (test B 100 mg, 12 w): 9.9
- Delayed memory (test B 100 mg, 12 w): 46.9 ± 11.3
- Immediate memory (test B 100 mg, 12 w): 43.9 ± 14.4
- Language (test B 100 mg, 12 w): 51.6 ± 8.7
- Visual spatial configuration (test B 100 mg, 12 w): 48.2 ± 10.3
- Attention: difference between active food and placebo food groups [2]: −5.5
- Delayed memory: difference between active food and placebo food groups [2]: 1.2
- Immediate memory: difference between active food and placebo food groups [2]: −0.9
- Language: difference between active food and placebo food groups [2]: −2.1
- Visual space: difference between active food and placebo food groups [2]: 1.0
- Attention [2]: 43.4 ± 11.6
- Delayed memory [2]: 41.7 ± 15.3
- Immediate memory [2]: 42.8 ± 13.4
- Language [2]: 47.8 ± 11.6
- Visual spatial configuration [2]: 48.3 ± 8.8
- scores regarding delayed playback, GABA group compared to the placebo group (test B): significant improvement
- scores regarding visual space, GABA group compared to the placebo group (test B): significant improvement
